Source: patent US20250326744A1, “PIPERAZINE DERIVATIVE OR SALT THEREOF, AND PHARMACEUTICAL COMPOSITION” (priority 2022, published 2025)
Structures can show the parent of a compound that is named as a salt.

How the values were obtained:
S-3769 strain = experiment: Combinational effect with antibacterial agent against Pseudomonas aeruginosa (Test Examples 2 and 4): S-3769 strain with AMK or GM at 1/4 MIC, EC99; format: cell-based; conditions: Table 52, Test Example 2, 16 to 20 hours culture, OD595; for EC99, S-3769 strain, AMK: combined with AMK at 1/4 MIC; for EC99, S-3769 strain, GM: combined with GM at 1/4 MIC
Experimental: (§1) The combinational effect of the test compound with the antibacterial agent against Pseudomonas aeruginosa was evaluated.
The […] was used for evaluating the inhibitory ability against MexXY-OprM. AMK or GM was used as the antibacterial agent used in combination.
The S-3769 strain is a clinically isolated strain collected from a domestic medical institution, and is a strain in which the expression level of MexY is accelerated.
(§2) AMK and GM are aminoglycoside-based antibacterial agents, and are drugs that are not discharged outside the bacteria by MexB but are discharged outside the bacteria by MexY For the culture of each Pseudomonas aeruginosa strain, a 96-well plate (amount of culture medium per well: 100 μL) was used, and cation-adjusted Mueller Hinton broth (CAMHB) was used. The inoculation amount of the bacteria was set to 10^4 to 5 CFU/well.
(§3) The mexB (PA) strain and the S-3769 strain were cultured for 16 to 20 hours in a culture medium to which each antibacterial agent and test compounds at various concentrations (0 to 800 μM) were added, and the proliferation of the bacterial strains was evaluated by optical turbidity at 595 nm (OD595). The concentration of the antibacterial agent in the culture medium was set to ¼ MIC.
(§4) The proliferation of bacteria in a case where the test compound and the antibacterial agent were not added was measured, and compared with the proliferation of bacteria in a case where the test compound in a case where the antibacterial agent was added at the concentration of ¼ MIC was contained, and the lowest concentration of the test compound at which the proliferation was inhibited by 99% or more was defined as the drug efflux pump inhibitory ability of the test compound as 99% inhibitory effect concentration (EC99).
(§5) The effect of suppressing the proliferation of each test compound in combination with an antibacterial agent at ¼ MIC for mexB (PA) or the S-3769 strain was evaluated as follows according to the value of EC99. • S: EC99≤12.5 μM • A: 12.5 μM<EC99≤25 μM • B: 25 μM<EC99≤100 μM • C: 100 μM<EC99
(§6) The combinational effect of the test compound with the antibacterial agent against Pseudomonas aeruginosa was evaluated in the same manner as in Test Example 2.

mexB (PA) strain = experiment: Combinational effect with antibacterial agent against Pseudomonas aeruginosa (Test Examples 2 and 4): mexB (PA) strain with LVFX, TC or AZT at 1/4 MIC, EC99; format: cell-based; conditions: Table 52, Test Example 2, 16 to 20 hours culture, OD595; for EC99, mexB (PA), AZT: combined with AZT at 1/4 MIC; for EC99, mexB (PA), LVFX: combined with LVFX at 1/4 MIC; for EC99, mexB (PA), TC: combined with TC at 1/4 MIC
Experimental: as §1
For the evaluation of the inhibitory ability against MexAB-OprM, a mutant strain of Pseudomonas aeruginosa in which MexAB-OprM was expressed as a main drug efflux pump (hereinafter, referred to as a “mexB (PA) strain”) was used. LVFX, TC, or AZT was used as the antibacterial agent used in combination.
The mexB (PA) strain is a strain produced by deleting the genes of MexCD-OprJ, MexEF-OprN, and MexXY in the drug efflux pump of Pseudomonas aeruginosa described in FEMS Microbiology Letters, 2001, Vol. 202, pp. 139 to 143. In the mexB (PA) strain, an expression level of MexB as a drug efflux pump is accelerated.
TC is a tetracycline-based antibacterial agent and is a drug that is discharged outside the bacteria by MexB. AZT is a monobactam-based antibacterial agent and is a drug that is discharged outside the bacteria by MexB.
as §2, §3, §4, §5, §6

N[C@@H](C(=O)N1CCN(Cc2ccccc2OCC(F)(F)F)CC1)C1CCN(CCc2cc(Cl)ccc2-c2ccccc2)CC1 [Example 2, Hydrobromide of (R)-2-amino-2-(1-(2-(4-chloro-[1,1′-biphenyl]-2-yl)ethyl)piperidin-4-yl)-1-(4-(2-(2,2,2-trifluoroethoxy)benzyl)piperazin-1-yl) ethan-1-one]
EC99, S-3769 strain, AMK (S-3769 strain): S (EC99≤12.5 μM)
EC99, S-3769 strain, GM (S-3769 strain): S (EC99≤12.5 μM)
EC99, mexB (PA), AZT (mexB (PA) strain): B (25 μM<EC99≤100 μM)
EC99, mexB (PA), LVFX (mexB (PA) strain): C (100 μM<EC99)
EC99, mexB (PA), TC (mexB (PA) strain): B (25 μM<EC99≤100 μM)

CCOc1c(Cl)ccc(F)c1CN1CCN(C(=O)[C@H](N)C2CCN(CCc3cc(Cl)ccc3-c3ccccc3)CC2)CC1 [Example 9, Hydrobromide of (R)-2-amino-1-(4-(3-chloro-2-ethoxy-6-fluorobenzyl)piperazin-1-yl)-2-(1-(2-(4-chloro-[1,1′-biphenyl]-2-yl)ethyl)piperidin-4-yl) ethan-1-one]
EC99, S-3769 strain, AMK (S-3769 strain): A (12.5 μM<EC99≤25 μM)
EC99, S-3769 strain, GM (S-3769 strain): A (12.5 μM<EC99≤25 μM)
EC99, mexB (PA), AZT (mexB (PA) strain): B (25 μM<EC99≤100 μM)
EC99, mexB (PA), LVFX (mexB (PA) strain): C (100 μM<EC99)
EC99, mexB (PA), TC (mexB (PA) strain): B (25 μM<EC99≤100 μM)

N[C@@H](C(=O)N1CCN(Cc2cccc3c2OCCC3)CC1)C1CCN(CCc2cc(Cl)ccc2-c2ccccc2)CC1 [Example 10, Hydrobromide of (R)-2-amino-2-(1-(2-(4-chloro-[1,1′-biphenyl]-2-yl)ethyl)piperidin-4-yl)-1-(4-(chroman-8-ylmethyl)piperazin-1-yl)ethan-1-one]
EC99, S-3769 strain, AMK (S-3769 strain): A (12.5 μM<EC99≤25 μM)
EC99, S-3769 strain, GM (S-3769 strain): A (12.5 μM<EC99≤25 μM)
EC99, mexB (PA), AZT (mexB (PA) strain): A (12.5 μM<EC99≤25 μM)
EC99, mexB (PA), LVFX (mexB (PA) strain): A (12.5 μM<EC99≤25 μM)
EC99, mexB (PA), TC (mexB (PA) strain): A (12.5 μM<EC99≤25 μM)

N[C@@H](C(=O)N1CCN(Cc2scc3c2OCCO3)CC1)C1CCN(CCc2cc(Cl)ccc2-c2ccccc2)CC1 [Example 11, Hydrobromide of (R)-2-amino-2-(1-(2-(4-chloro-[1,1′-biphenyl]-2-yl)ethyl)piperidin-4-yl)-1-(4-((2,3-dihydrothieno[3,4-b][1,4]dioxin-5-yl)methyl)piperazin-1-yl)ethan-1-one]
EC99, S-3769 strain, AMK (S-3769 strain): B (25 μM<EC99≤100 μM)
EC99, S-3769 strain, GM (S-3769 strain): A (12.5 μM<EC99≤25 μM)
EC99, mexB (PA), AZT (mexB (PA) strain): B (25 μM<EC99≤100 μM)
EC99, mexB (PA), LVFX (mexB (PA) strain): B (25 μM<EC99≤100 μM)
EC99, mexB (PA), TC (mexB (PA) strain): B (25 μM<EC99≤100 μM)

N[C@@H](C(=O)N1CCN(Cc2c(F)cccc2OCC(F)F)CC1)C1CCN(CCc2cc(Cl)ccc2-c2ccccc2)CC1 [Example 18, Hydrobromide of (R)-2-amino-2-(1-(2-(4-chloro-[1,1′-biphenyl]-2-yl)ethyl)piperidin-4-yl)-1-(4-(2-(2,2-difluoroethoxy)-6-fluorobenzyl)piperazin-1-yl)ethan-1-one]
EC99, S-3769 strain, AMK (S-3769 strain): A (12.5 μM<EC99≤25 μM)
EC99, S-3769 strain, GM (S-3769 strain): A (12.5 μM<EC99≤25 μM)
EC99, mexB (PA), AZT (mexB (PA) strain): B (25 μM<EC99≤100 μM)
EC99, mexB (PA), LVFX (mexB (PA) strain): B (25 μM<EC99≤100 μM)
EC99, mexB (PA), TC (mexB (PA) strain): B (25 μM<EC99≤100 μM)

CCOc1cccc(F)c1CN1CCN(C(=O)[C@H](N)C2CCN(CCc3ccccc3)CC2)CC1 [Example 114, Hydrochloride of (R)-2-amino-1-(4-(2-ethoxy-6-fluorobenzyl)piperazin-1-yl)-2-(1-phenethylpiperidin-4-yl)ethan-1-one]
EC99, mexB (PA), AZT (mexB (PA) strain): C (100 μM<EC99)
EC99, mexB (PA), LVFX (mexB (PA) strain): C (100 μM<EC99)

COc1ccccc1CN1CCN(C(=O)[C@H](N)C2CCN(CCc3ccc(Cl)s3)CC2)CC1 [Example 134, Hydrochloride of (R)-2-amino-2-(1-(2-(5-chlorothiophen-2-yl)ethyl)piperidin-4-yl)-1-(4-(2-methoxybenzyl)piperazin-1-yl) ethan-1-one]
EC99, mexB (PA), AZT (mexB (PA) strain): C (100 μM<EC99)
EC99, mexB (PA), LVFX (mexB (PA) strain): C (100 μM<EC99)

COc1ccccc1CN1CCN(C(=O)[C@H](N)C2CCN(CCc3cccc(Cl)c3)CC2)CC1 [Example 140, hydrochloride of (R)-2-amino-2-(1-(3-chlorophenethyl)piperidin-4-yl)-1-(4-(2-methoxybenzyl)piperazin-1-yl)ethan-1-one]
EC99, mexB (PA), AZT (mexB (PA) strain): C (100 μM<EC99)
EC99, mexB (PA), LVFX (mexB (PA) strain): C (100 μM<EC99)

O=C(CN1CCN(CCc2ccccc2)CC1)N1CCN(Cc2ccccc2OC(F)F)CC1 [Example 200, hydrochloride of 1-(4-(2-(difluoromethoxy)benzyl)piperazin-1-yl)-2-(4-phenethylpiperazin-1-yl)ethan-1-one]
EC99, mexB (PA), AZT (mexB (PA) strain): B (25 μM<EC99≤100 μM)
EC99, mexB (PA), LVFX (mexB (PA) strain): B (25 μM<EC99≤100 μM)

COc1cccc(F)c1CN1CCN(C(=O)CN2CCN(CCc3ccccc3)CC2)CC1 [Example 215, hydrochloride of 1-(4-(2-fluoro-6-methoxybenzyl)piperazin-1-yl)-2-(4-phenethylpiperazin-1-yl)ethan-1-one]
EC99, mexB (PA), AZT (mexB (PA) strain): A (12.5 μM<EC99≤25 μM)
EC99, mexB (PA), LVFX (mexB (PA) strain): S (EC99≤12.5 μM)

CCOc1ccccc1CN1CCN(C(=O)CN2CCN(CCc3ccccc3)CC2)CC1 [Example 220, Hydrochloride of 1-(4-(2-ethoxybenzyl)piperazin-1-yl)-2-(4-phenethylpiperazin-1-yl) ethan-1-one]
EC99, mexB (PA), LVFX (mexB (PA) strain): S (EC99≤12.5 μM)

COc1ccc(F)c(F)c1CN1CCN(C(=O)CN2CCN(CCc3ccccc3)CC2)CC1 [Example 247, Hydrochloride of 1-(4-(2,3-difluoro-6-methoxybenzyl)piperazin-1-yl)-2-(4-phenethylpiperazin-1-yl)ethan-1-one]
EC99, mexB (PA), AZT (mexB (PA) strain): A (12.5 μM<EC99≤25 μM)
EC99, mexB (PA), LVFX (mexB (PA) strain): B (25 μM<EC99≤100 μM)

COc1ccsc1CN1CCN(C(=O)CN2CCN(CCc3ccccc3)CC2)CC1 [Example 249, Hydrochloride of 1-(4-((3-methoxythiophen-2-yl)methyl)piperazin-1-yl)-2-(4-phenethylpiperazin-1-yl)ethan-1-one]
EC99, mexB (PA), AZT (mexB (PA) strain): C (100 μM<EC99)
EC99, mexB (PA), LVFX (mexB (PA) strain): C (100 μM<EC99)

COc1ccccc1CN1CCN(C(=O)C(C)N2CCN(CCc3ccccc3)CC2)CC1 (stereo not shown) [Example 261, hydrochloride of 1-(4-(2-methoxybenzyl)piperazin-1-yl)-2-(4-phenethylpiperazin-1-yl)propan-1-one]
EC99, mexB (PA), AZT (mexB (PA) strain): A (12.5 μM<EC99≤25 μM)
EC99, mexB (PA), LVFX (mexB (PA) strain): B (25 μM<EC99≤100 μM)

COc1ccccc1CN1CCN(C(=O)CN2CCN(CCC3CCCCC3)CC2)CC1 [Example 275, 2-(4-(2-Cyclohexylethyl)piperazin-1-yl)-1-(4-(2-methoxybenzyl)piperazin-1-yl) ethan-1-one and hydrochloride thereof]
EC99, mexB (PA), AZT (mexB (PA) strain): S (EC99≤12.5 μM)
EC99, mexB (PA), LVFX (mexB (PA) strain): A (12.5 μM<EC99≤25 μM)

COc1ccccc1CN1CCN(C(=O)CN2CCC(C#N)(CCc3ccccc3)CC2)CC1 [Example 401, Hydrochloride of 1-(2-(4-(2-methoxybenzyl)piperazin-1-yl)-2-oxoethyl)-4-phenethylpiperidine-4-carbonitrile]
EC99, mexB (PA), AZT (mexB (PA) strain): B (25 μM<EC99≤100 μM)
EC99, mexB (PA), LVFX (mexB (PA) strain): C (100 μM<EC99)

COc1ccccc1CN1CCN(C(=O)CN2CCC(N(C)Cc3ccccc3)CC2)CC1 [Example 420, hydrochloride of 2-(4-(benzyl(methyl)amino)piperidin-1-yl)-1-(4-(2-methoxybenzyl)piperazin-1-yl)ethan-1-one]
EC99, mexB (PA), AZT (mexB (PA) strain): C (100 μM<EC99)
EC99, mexB (PA), LVFX (mexB (PA) strain): C (100 μM<EC99)
EC99, mexB (PA), TC (mexB (PA) strain): C (100 μM<EC99)
